Target: T1, Leukotriene, Cysteinyl CysLT1 (Cavia porcellus, UniProt Q2NNR5)
T1 construct: from tissue; host or cells: guinea pig lung membrane
T1 sequence (Q2NNR5 1-340): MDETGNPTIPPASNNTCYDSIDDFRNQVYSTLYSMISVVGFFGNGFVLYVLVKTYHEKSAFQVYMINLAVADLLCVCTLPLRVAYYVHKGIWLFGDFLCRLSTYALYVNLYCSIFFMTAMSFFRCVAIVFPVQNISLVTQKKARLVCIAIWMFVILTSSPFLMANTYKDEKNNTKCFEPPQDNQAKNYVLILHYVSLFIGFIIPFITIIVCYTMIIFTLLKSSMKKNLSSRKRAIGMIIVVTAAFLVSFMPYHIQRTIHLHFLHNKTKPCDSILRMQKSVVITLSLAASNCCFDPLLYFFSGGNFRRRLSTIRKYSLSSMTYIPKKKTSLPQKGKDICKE
Assay: receptor radio-ligand-binding assay (Tritiated LTD4 as the ligand), Guinea pig lung membrane
Settings: 0.2 nM 3H LTD4, Guinea pig lung membrane; for inhibition at 0.001 µM / inhibition at 0.003 µM / inhibition at 0.01 µM: 0.5 h; for inhibition at 0.001 µM: read-out: % Inhbition (in nM) 1; for inhibition at 0.003 µM: read-out: % Inhbition (in nM) 3; for inhibition at 0.01 µM: read-out: % Inhbition (in nM) 10
Experimental: The primary in-vitro biological screening for the compounds carried-out involving receptor radio-ligand-binding assay (Tritiated LTD4 as the ligand) by known methods described in literature [a). Mong et al. European Journal of Pharmacology (102); 1984 1-11b). Jones et al; Journal of Physiology & Pharmacology (73); 1994, 191-201 c). MDS Pharma Services: 250460 Leukotriene, Cysteinyl CysLT1]. Accordingly, Guinea pig lung membrane (100 ug) is incubated with 0.2 nM 3H LTD4 in presence of Reference Standard/Test item/Vehicle Control. Non Specific Binding is determined by incubating the membrane with 0.2 nM 3H LTD4 in presence of 1 uM of unlabeled LTD4. The samples are incubated at 26° C. for 30 minutes and are vacuum filtered on a membrane to separate the bound and free radioligand. The membrane is counted in a liquid scintillation counter to calculate the bound radioactivity. Specific Binding in Vehicle treated and Reference Standard/Test item treated set is compared to evaluate the % Inhibition values. Some of the compounds have shown >50% inhibition in the presence of ≦3 nano-molar concentration of the compounds of present invention as shown in the following table.

Structure (SMILES)	inhibition at 0.001 µM (1 nM test compound)	inhibition at 0.003 µM (3 nM test compound)	inhibition at 0.01 µM (10 nM test compound)	% Inhbition (in nM) 1 (1 nM test compound)	% Inhbition (in nM) 3 (3 nM test compound)	% Inhbition (in nM) 10 (10 nM test compound)
C#CCOC(COc1ccccc1C(=O)O)c1cccc(/C=C/c2ccc3ccc(Cl)cc3n2)c1 (stereo not drawn) [Ia.127, 2-(2-{3-[(E)-2-(7-Chloro-quinolin-2-yl)-vinyl]-phenyl}-2-prop-2-ynyloxy-ethoxy)-benzoic acid]	50%	69%	73%	–	–	–
O=C(O)c1ccccc1OCC(OCCc1cccs1)c1cccc(/C=C/c2ccc3ccc(Cl)cc3n2)c1 (stereo not drawn) [Ia.143, 2-[2-{3-[(E)-2-(7-Chloro-quinolin-2-yl)-vinyl]-phenyl}-2-(2-thiophen-2-yl-ethoxy)-ethoxy]-benzoic acid]	32%	56%	74%	–	–	–
CCOC(COc1ccc(OC)cc1C(=O)NS(C)(=O)=O)c1cccc(/C=C/c2ccc3ccc(Cl)cc3n2)c1 (stereo not drawn) [Ia.157, N-[2-(2-{3-[(E)-2-(7-Chloro-quinolin-2-yl)-vinyl]-phenyl}-2-ethoxy-ethoxy)-5-methoxybenzoyl]-methanesulfonamide]	62%	72%	80%	–	–	–
[2H]C([2H])([2H])Oc1ccc(OCC(OCC2CC2)c2cccc(/C=C/c3ccc4ccc(Cl)cc4n3)c2)c(C(=O)O)c1 (stereo not drawn) [Ia.172, 2-(2-{3-[(E)-2-(7-Chloro-quinolin-2-yl)-vinyl]-phenyl}-2-cyclopropylmethoxy-ethoxy)-5-triduetereo methoxy-benzoic acid]	–	–	–	50%	77%	88%
C#CCO[C@H](COc1ccc(OC)cc1C(=O)O)c1cccc(/C=C/c2ccc3ccc(Cl)cc3n2)c1 [Ia.185, 2-((S)-2-{3-[(E)-2-(7-Chloro-quinolin-2-yl)-vinyl]-phenyl}-2-prop-2-ynyloxy-ethoxy)-5-methoxy-benzoic acid]	57%	60%	84%	–	–	–
CCOC(COc1ccc(OC)cc1C(=O)O)c1cccc(/C=C/c2nc3ccccc3s2)c1 (stereo not drawn) [Ia.192, 2-{2-[3-((E)-2-Benzothiazol-2-yl-vinyl)-phenyl]-2-ethoxy-ethoxy}-5-methoxy-benzoic acid]	38%	54%	74%	–	–	–
CCOC(COc1ccc(OC)cc1C(=O)O)c1cccc(C#Cc2ccc3ccc(Cl)cc3n2)c1 (stereo not drawn) [Ia.199, 2-{2-[3-(7-Chloro-quinolin-2-ylethynyl)-phenyl]-2-ethoxy-ethoxy}-5-methoxy-benzoic acid]	76%	88%	97%	–	–	–
CCOC(CSc1ncccc1C(=O)O)c1cccc(/C=C/c2ccc3ccc(Cl)cc3n2)c1 (stereo not drawn) [Ia.205, 2-(2-{3-[(E)-2-(7-Chloro-quinolin-2-yl)-vinyl]-phenyl}-2-ethoxy-ethylsulfanyl)-nicotinic acid]	46%	49%	70%	–	–	–
O=C(O)c1ccccc1CCC1(c2cccc(/C=C/c3ccc4ccc(Cl)cc4n3)c2)OCCO1 [Ib.4, 2-[2-(2-{3-[(E)-2-(7-Chloro-quinolin-2yl)-vinyl]phenyl}-[1,3]dioxolan-2yl)-ethyl]-benzoic acid]	33%	41%	62%	–	–	–
Cc1oc(=O)oc1COC(=O)c1ccccc1CCC1(c2cccc(/C=C/c3ccc4ccc(Cl)cc4n3)c2)OCCO1 [Ib.11]	32%	60%	74%	–	–	–
CC1(C)COC(CCc2ccccc2C(=O)O)(c2cccc(/C=C/c3ccc4ccc(Cl)cc4n3)c2)OC1 [Ib.26]	34%	53%	56%	–	–	–
O=C(c1ccccc1CCC1(c2cccc(/C=C/c3ccc4ccc(Cl)cc4n3)c2)OCCO1)N1CCCC1 [Ib.36, {2-[2-(2-{3-[(E)-2-(7-Chloro-quinolin-2-yl)-vinyl]-phenyl}-[1,3]-dioxolan-2-yl)-ethyl]-phenyl}-pyrrolidin-1-yl-methanone]	49%	91%	99%	–	–	–
O=C(O)c1ccccc1SCC1(c2cccc(/C=C/c3ccc4ccc(Cl)cc4n3)c2)OCCO1 [Ib.42]	31%	41%	49%	–	–	–
O=C(O)c1ccccc1CCC1(c2cccc(/C=C/c3ccc4ccc(Cl)cc4n3)c2)OCCS1 (stereo not drawn) [Ib.59]	64%	74%	97%	–	–	–
COc1ccc(CCC2(c3cccc(/C=C/c4ccc5ccc(Cl)cc5n4)c3)OCCO2)c(C(=O)O)c1 [Ib.67]	72%	86%	89%	–	–	–
COc1ccc(C=CC2(c3cccc(/C=C/c4ccc5ccc(Cl)cc5n4)c3)OCCO2)c(C(=O)O)c1 [Ib.79]	67%	78%	86%	–	–	–
CCOc1ccc(CCC2(c3cccc(/C=C/c4ccc5ccc(Cl)cc5n4)c3)OCCO2)c(C(=O)O)c1 [Ib.86]	6%	38%	53%	–	–	–
C#CCOc1ccc(CCC2(c3cccc(/C=C/c4ccc5ccc(Cl)cc5n4)c3)OCCO2)c(C(=O)O)c1 [Ib.93]	14%	20%	60%	–	–	–
O=C(O)c1cc(Cl)ccc1CCC1(c2cccc(/C=C/c3ccc4ccc(Cl)cc4n3)c2)OCCO1 [Ib.111]	65%	84%	91%	–	–	–
COc1cc(C(=O)O)c(CCC2(c3cccc(/C=C/c4ccc5ccc(Cl)cc5n4)c3)OCCO2)c(OC)c1OC [Ib.113]	48%	68%	85%	–	–	–
COc1cc(C(=O)O)c(CCC2(c3cccc(/C=C/c4ccc5ccc(Cl)cc5n4)c3)OCCCO2)cc1[N+](=O)[O-] [Ib.123]	58%	81%	86%	–	–	–
O=C(O)c1cc2c(cc1CCC1(c3cccc(/C=C/c4ccc5ccc(Cl)cc5n4)c3)OCCCO1)OCO2 [Ib.133]	41%	57%	80%	–	–	–
COc1ccc(CCC2(c3cccc(/C=C/c4ccc5ccc(Cl)cc5n4)c3)OCCO2)c(-c2nnn[nH]2)c1 [Ib.135]	56%	77%	86%	–	–	–
O=C(O)c1cc2c(cc1CCC1(c3cccc(/C=C/c4ccc5ccc(Cl)cc5n4)c3)OCCO1)OCCO2 [Ib.139]	28%	52%	82%	–	–	–
O=C(O)c1ccc(C(=O)O)c(CCC2(c3cccc(/C=C/c4ccc5ccc(Cl)cc5n4)c3)OCCO2)c1 [Ib.142]	15%	49%	80%	–	–	–
CC(ON=C(CCc1ccccc1C(C)(C)O)c1cccc(/C=C/c2ccc3ccc(Cl)cc3n2)c1)C(=O)O (stereo not drawn) [Ib.148]	20%	16%	31%	–	–	–
